The record followed here is EPA's ToxValDB 9.5.

In brackets after ≈: the same amount, converted by molar mass. Some results are limits rather than exact numbers.

One data set concerns Pontoscolex corethrurus. As to conditions: acute; mortality.
In another data set the test system is Daphnia magna. The following applies: for NOEC: chronic/long-term, duration: 21 days.
The conditions of data set [1]: subchronic; duration: 90 days.
The next data set concerns Rattus norvegicus. The following applies: for LD50: acute, mortality.
The next data set relates to Tagia sp. As to conditions: acute, duration: 14 days.
Data set [2] relates to Vigna radiata var. radiata. As to conditions: not reported; other.
For another data set, the system named is Homo sapiens. As to conditions: clinical.
The subject of the next data set is Aphidius rhopalosiphi. As to conditions: not reported; mortality.
The next data set has as its system Apis mellifera. The following applies: acute, mortality.
For another data set, the system named is Bibionidae. The following applies: chronic/long-term, duration: 28 days.
Another data set deals with Zea sp. The following applies: acute; duration: 22 days; biomass.
In the next data set the test system is Chrysoperla externa. Description: LR50; higher = less toxic. The following applies: not reported; duration: 34 days; mortality.
The test system of a further data set is Mus musculus. As to conditions: repeat dose other.
The test system of a further data set is Colinus virginianus. The following applies: for LD50: acute, oral, mortality.
The next data set has as its system Aphidius colemani. Description: LR50; higher = less toxic. As to conditions: not reported; mortality.
Another data set concerns Danio rerio. The following applies: short-term; duration: 168 hours; growth.
For the next data set, the system named is Pimephales promelas. The following applies: chronic/long-term; duration: 255 days; growth.
The mark [3] stands for this setting: acute, duration: 96 hours, mortality.
The mark [4] stands for this setting: chronic/long-term, duration: 28 days, growth.
Setting [5] is: reproduction developmental, no effects.

As for `CCc1nccnc1C(C)=O` [1-(3-Ethylpyrazinyl)ethan-1-one], the LC50 in the data set with Pontoscolex corethrurus was determined as 360 mg/kg.
The same measure, in the same setting: the value for `CCc1nccnc1CC` [2,3-Diethylpyrazine] was 236 mg/kg.
Regarding `Cc1csc(C(C)C)n1` [2-Isopropyl-4-methylthiazole], the LC50 worked out at 9 µg/mL (≈ 63.7 µM) in the data set with Daphnia magna (acute, mortality) and 194 mg/kg in the data set on Pontoscolex corethrurus.
`COc1nccnc1C` [2-Methoxy-3-methylpyrazine] yielded an LC50 with Pontoscolex corethrurus of 245 mg/kg.
In the data set with Pontoscolex corethrurus, `CCCC/C=C\CCO` [3-Octen-1-ol, (3Z)-] showed an LC50 of 194 mg/kg.
With `CC(=O)C(C)Sc1ccoc1C` (stereo not drawn) [3-[(2-Methylfuran-3-yl)sulfanyl]butan-2-one], the NOAEL in [1] is 3.76 mg/kg-day; in the data set on Rattus norvegicus (subchronic, duration: 90 days, oral, diet), 3.76 mg/kg-day.
Take `Cc1cc(C)[nH]c(=O)n1` [4,6-Dimethylpyrimidin-2-ol]: in the data set on Tagia sp. (no effects), the LC50 was over 1000 mg/kg. In data set [2], the NOEC was found to be 2.63 mg/kg.
As to `CN1CCC[C@H]1c1cccnc1` [(-)-Nicotine], in the data set on Homo sapiens (injection, intravenous, clinical signs), the LOAEL is 0.0035 mg/kg-day.
In the case of `C/C=C(\C)C(=O)O[C@H]1C[C@@H](OC(C)=O)[C@@]2(C(=O)OC)CO[C@H]3[C@@H](O)[C@@](C)([C@]45O[C@@]4(C)[C@H]4C[C@@H]5O[C@@H]5OC=C[C@@]54O)[C@H]4[C@]1(CO[C@]4(O)C(=O)OC)[C@@H]32` [Azadirachtin], the LEL in the data set on Aphidius rhopalosiphi stood at 57.6 g/ha; with Zea sp. it was 30.9 g/ha. Also, the LD50 in the data set on Apis mellifera (dermal) was over 11.8 µg/piece; in the data set on Apis mellifera (duration: 48 hours, oral, unspecified), over 8.1 µg/piece; in the data set with Apis mellifera (oral, unspecified), over 8.1 µg/piece. The NOEC with Bibionidae came out at 0.0016 mg/L; in the data set with Bibionidae (development) it was 0.0016 mg/L; in the data set with Daphnia magna (reproduction), 0.038 mg/L; in the data set on Oncorhynchus mykiss (setting [4]) it was 0.0047 mg/L. The LC50 with Oncorhynchus mykiss (setting [3]) is 0.048 µg/mL (≈ 0.0666 µM); in the data set with Tagia sp. (mortality), over 1000 mg/kg. Also, the LR50 with Chrysoperla externa was determined as 0.77 g/ha.
Compound `CC(=O)[O-].CC(=O)[O-].O.O.O.O.[Co+2]` [Cobalt(II) acetate tetrahydrate] had an LOAEL in the data set with Homo sapiens (duration: 22 days, oral, hematological) of 1 mg/kg-day.
Turning to `COCCOC(=O)C(C#N)(C(=O)c1ccccc1C(F)(F)F)c1ccc(C(C)(C)C)cc1` (stereo not drawn) [Cyflumetofen], the figures for the NOEC in the data set with Bibionidae (development), in the data set with Cyprinus carpio (setting [4]) and in the data set on Daphnia magna (mortality) were at least 0.064 mg/L, at least 0.072 mg/L and 0.065 mg/L, respectively. In the data set on Cyprinus carpio (setting [3]), this compound returned an LC50 of over 0.54 µg/mL.
As to `C=C(C)[C@H]1CC=C(C)CC1` [D-Limonene], the NOAEL with Mus musculus (gross pathology) was 250 mg/kg-day; with Mus musculus (injection, intraperitoneal) it was 215 mg/kg-day; in the data set on Rattus norvegicus (repeat dose other, histopathology: nonneoplastic) it was 250 mg/kg-day.
`OC[C@@H](O)[C@@H](O)CO` [Erythritol] displayed an NOAEL in the data set on Homo sapiens (duration: 27 months, oral, drinking water, clinical signs) of 710 mg/kg-day.
For `C=C1C[C@]23C[C@@]1(O)CC[C@H]2[C@@]12C=C[C@H](O)[C@@](C)(C(=O)O1)[C@H]2[C@@H]3C(=O)O` [Gibberellic acid], the LD50 with Anas platyrhynchos (acute, oral, unspecified, mortality) is over 2000 mg/kg; in the data set with Apis mellifera (dermal) it was over 25 µg/piece; with Colinus virginianus (diet), over 904 mg/kg-day; in the data set on Rattus norvegicus (oral), over 5000 mg/kg. Also, the NOEL in the data set on Oryctolagus sp. (setting [5]) and in the data set with Rattus norvegicus (setting [5]) was 1000 mg/kg-day throughout. In the data set on Rattus norvegicus (subchronic, duration: 90 days, oral, organ weight), the NOAEL amounted to 680 mg/kg-day. In the data set with Aphidius colemani, this compound yielded an LR50 of over 10 g/ha.
Regarding `O=C(O)CNCP(=O)(O)O` [Glyphosate], the results for the NOEL with Anas platyrhynchos (reproductive) and in the data set on Colinus virginianus (reproduction developmental) were 125 mg/kg-day and 96.3 mg/kg-day, respectively. Also, the LD50 with Colinus virginianus is 4330 mg/kg-day; with Rattus norvegicus (oral), over 2000 mg/kg-day. Moreover, the NOEC with Danio rerio was found to be 1 mg/L; in the data set with Daphnia magna (reproduction) it was 12.5 mg/L; in the data set on Pimephales promelas, 25.7 mg/L. The compound further returned an NOAEL in the data set with Oryctolagus sp. (chronic) of 50 mg/kg-day.
